From patent US20230279002A1, “Polymorphs of Crystalline Forms of 3,10-dimethoxy-5,8,13,13a-tetrahydro-6H-isoquinolino[3,2-a]isoquinolin-9-yl 3-fluorobenzenesulfonate and Salts Thereof” (CVI Pharmaceuticals Limited, priority 2020, published 2023)
In brackets after ≈: the same amount, converted by molar mass.

What was measured:
Type in all cases: physicochemical
[1] = Solvent evaporation, solid form by XRPD
Protocol: Solvent evaporation: About 20 mg 2a was dissolved in organic solvents. The solution was filtrated and dried in the air. The obtained solid part from the evaporation process was analyzed by XRPD.

[2] = Precipitation by addition of anti-solvent, solid form by XRPD
Protocol: The precipitates were collected and analyzed by XRPD.
2a was dissolved in ACN or MeOH, and water or heptane was added as anti-solvent. […] The XRPD pattern of compound 2a (bottom) and compound 2a dissolved in ACN then precipitated with heptane (top) is shown in FIG. 6. The XRPD pattern of compound 2a (bottom trace) and compound 2a dissolved in MeOH then precipitated with heptane (top trace) or water (center trace) is shown in FIG. 7.

[3] = Apparent solubility in organic solvents (visual); settings: for solubility: thermodynamic from solid
Protocol: Solubility: 2a substance was equilibrated with organic solvents to visually test the apparent solubility. The experiment was terminated once or if the target of 20 mg/mL was achieved.

[4] = Equilibration with solvent at 25° C. and 50° C. (slurry), solid form by XRPD
Protocol: Equilibration with solvent at 25° C. and 50° C.: About 50 mg of 2a was equilibrated with 1 ml solvents at 25° C. and 50° C. After stirring for 1 day and 7 days, the suspensions were centrifuged. The solid part was collected and analyzed by XRPD, then dried in the air for 10 min and analyzed by XRPD. After equilibrium with solvent at 25° C. and 50° C. for 1 and 7 days, the crystal form was not changed. […] The XRPD spectra of the solid equilibrated with each solvent listed in Table 12, at 25° C. and 50° C., are shown overlaid that of undisturbed 2a in FIG. 8 through FIG. 14.

[5] = Crystallization from hot saturated solutions, solid form by XRPD; settings: for Solid form: EtOH, XRPD
Protocol: Crystallization from hot saturated solutions: About 100 mg 2a was dissolved with minimal amount of solvent at about 60° C. The solution was filtrated and separated into two portions. One portion was put in ice bath and agitated till the end of the experiment; the other portion was cooled down naturally. The precipitates were collected on a filter, dried and analyzed by XRPD.

## COc1ccc2c(c1)CCN1Cc3c(ccc(OC)c3OS(=O)(=O)c3cccc(F)c3)C[C@H]21 [Compound 2a]
[1]; ACN
  Solid form after evaporation: Amorphous
[1]; Acetone
  Solid form after evaporation: Amorphous
[1]; EtOH
  Solid form after evaporation: Amorphous
[1]; MeOH
  Solid form after evaporation: Amorphous
[2]; heptane as anti-solvent (ACN or MeOH solution)
  Crystal form after precipitation by anti-solvent: not changed
[2]; solvent ACN, anti-solvent Heptane (6 volumes)
  Solid form: Crystal, no change
[2]; solvent ACN, anti-solvent Water (6 volumes)
  Solid form: No crystal, failed
[2]; solvent MeOH, anti-solvent Heptane (3 volumes)
  Solid form: Crystal, no change
[2]; solvent MeOH, anti-solvent Water (2 volumes)
  Solid form: Amorphous
[2]; water added to MeOH solution
  Crystal form after precipitation by anti-solvent: transformed to amorphous
[3]; 50% EtOH (aq), aqueous with cosolvent or surfactant or cyclodextrin
  solubility: < 990 µg/mL
[3]; ACN
  Solubility (mg/ml): 6.17~18.5 mg/ml
[3]; EtOH, organic solvent or mixture
  solubility: 2100 to 3150 µg/mL (≈ 4.47 to 6.71 mM)
[3]; THF, organic solvent or mixture
  solubility: < 1140 µg/mL
[3]; acetone, organic solvent or mixture
  solubility: 2220 to 3330 µg/mL (≈ 4.73 to 7.09 mM)
[3]; acetonitrile, organic solvent or mixture, ACN
  solubility: 6170 to 18500 µg/mL (≈ 13.1 to 39.4 mM)
[3]; ethyl acetate, organic solvent or mixture
  solubility: < 1800 µg/mL
[3]; heptane, organic solvent or mixture
  solubility: < 1430 µg/mL
[3]; methanol, organic solvent or mixture, MeOH
  solubility: > 17000 µg/mL
[3]; water
  solubility: < 1080 µg/mL
[4]; 25° C. and 50° C., 1 and 7 days
  Crystal form after equilibration with solvent: not changed
[4]; 50% EtOH (aq), 25° C.-1 day
  Slurry solid form: Crystal, no change
[4]; 50% EtOH (aq), 25° C.-7 day
  Slurry solid form: Crystal, no change
[4]; 50% EtOH (aq), 50° C.-1 day
  Slurry solid form: partially crystalline
[4]; ACN, 25° C.-1 day
  Slurry solid form: Crystal, no change
[4]; ACN, 25° C.-7 day
  Slurry solid form: Crystal, no change
[4]; ACN, 50° C.-1 day
  Slurry solid form: Crystal, no change
[4]; Acetone, 25° C.-1 day
  Slurry solid form: Crystal, no change
[4]; Acetone, 25° C.-7 day
  Slurry solid form: Crystal, no change
[4]; Acetone, 50° C.-1 day
  Slurry solid form: Crystal, no change
[4]; EtOAc, 25° C.-1 day
  Slurry solid form: Crystal, no change
[4]; EtOAc, 25° C.-7 day
  Slurry solid form: Crystal, no change
[4]; EtOAc, 50° C.-1 day
  Slurry solid form: Crystal, no change
[4]; EtOH, 25° C.-1 day
  Slurry solid form: Crystal, no change
[4]; EtOH, 25° C.-7 day
  Slurry solid form: Crystal, no change
[4]; EtOH, 50° C.-1 day
  Slurry solid form: Crystal, no change
[4]; IPA, 25° C.-1 day
  Slurry solid form: Crystal, no change
[4]; IPA, 25° C.-7 day
  Slurry solid form: Crystal, no change
[4]; MeOH, 25° C.-1 day
  Slurry solid form: Crystal, no change
[4]; MeOH, 25° C.-7 day
  Slurry solid form: Crystal, no change
[4]; MeOH, 50° C.-1 day
  Slurry solid form: Clear solution
[4]; THF, 25° C.-1 day
  Slurry solid form: Crystal, no change
[4]; THF, 25° C.-7 day
  Slurry solid form: Crystal, no change
[4]; THF, 50° C.-1 day
  Slurry solid form: Crystal, no change
[4]; Water, 25° C.-1 day
  Slurry solid form: Crystal, no change
[4]; Water, 25° C.-7 day
  Slurry solid form: Crystal, no change
[4]; Water, 50° C.-1 day
  Slurry solid form: partially crystalline
[5]; quick (ice bath)
  Solid form: partially crystalline
[5]; slow (cooled down naturally)
  Solid form: no crystal, failed
[5]; dissolved at about 60° C., cooled
  Solid form after crystallization from hot saturated solutions: partially crystalline
